For one test, the system named is CCD841-CoN. Nature of the test: Cell viability assays, normal colon cells. The note with it: negative control cells. The test is classed as cell-based, human. Here is the method:
FIG. 15. Inhibition of cell viability by BKAc-Puro. The cell lines were grown and analyzed as in FIG. 12.
FIG. 18. Selective cytotoxicity by BKAc-Puro on pancreatic cancer cells. Pancreatic cancer (BXPC-3 and Miapaca-2), colon cancer (HCT116 as a positive control sensitive to the drug), and normal colon (CCD841-CoN as a negative control) cells were grown and analyzed as in FIG. 13. BKAc-Puro can effectively cause cell death on pancreatic cancer cells (BXPC-3 and MiaPaca-2) that are known to resistant to conventional chemotherapeutic drugs including 5-FU and Gemicitabine.
FIG. 19. Selective cytotoxicity by BKAc-Puro on prostate cancer cells. Prostate cancer (PC-3, DU-145, and LNCaP), colon cancer (HCT116 as a positive control sensitive to the drug), and normal colon (CCD841-CoN as a negative control) cells were grown and analyzed as in FIG. 13. BKAc-Puro can effectively cause cell death on prostate cancer cells.
Cell number was determined by cell counting using improved Neubauer hemacytometer. Cell viability was calculated as the number of viable cells divided by the total number of cells using Trypan Blue Stain (Invitrogen) to distinguish non-viable cells. Data were obtained from duplicated samples with quadruplicate measurements. […] After additional 2-3 h incubation, the absorbance of the formazan at 490 nm was measured by the microplate reader. […]

Test [1] deals with pancreatic cancer cells (BXPC-3 and MiaPaca-2). Nature of the test: Cell viability assay, pancreatic cancer cells. The test is classed as cell-based, human. Particulars: MTS. Here is the method:
FIG. 16. Anticancer effect of BKAc-Puro on pancreatic cell lines. The cell lines were treated with DMSO (vehicle), BKAc-Puro (54 μM), or Puro (4.2 μM) for 5 d followed by MTS assay. Normal Eph4 (non-pancreatic) cells are shown as control. Data represent mean values of triplicate measurements±s.d.
FIG. 18. Selective cytotoxicity by BKAc-Puro on pancreatic cancer cells. Pancreatic cancer (BXPC-3 and Miapaca-2), colon cancer (HCT116 as a positive control sensitive to the drug), and normal colon (CCD841-CoN as a negative control) cells were grown and analyzed as in FIG. 13. […]
(§1) Cell number was determined by cell counting using improved Neubauer hemacytometer. Cell viability was calculated as the number of viable cells divided by the total number of cells using Trypan Blue Stain (Invitrogen) to distinguish non-viable cells. […] After additional 2-3 h incubation, the absorbance of the formazan at 490 nm was measured by the microplate reader. […] Determination of non-viable cells using PI staining was performed by adding 1 μg/ml of PI solution (Sigma) to the cell culture, prior to the examination under fluorescence microscopy (Axiovert 3, Carl Zeiss) through a×32 objective equipped with a digital imaging processor (Infinity 3, Lumenera).

Test [2] concerns malignant colon cancer cells with high HDAC and CTSL activity. Nature of the test: Cell counting, trypan blue exclusion and PI staining, malignant colon cancer cell lines. It is filed as cell-based, human. The note with it: 54 μM. Here is the method: (§2) FIG. 9. The colon cancer cell lines were grown for 5 d either with vehicle control DMSO (gray symbols) or 54 μM BKAc-Puro (red and blue symbols), and cell number was determined at the indicated time points.
FIG. 10. The cell lines were grown as in FIG. 8, cell viability was determined by trypan blue at the indicated time points, and is presented as the percentage of live cells treated with vehicle control (gray symbols) or BKAc-Puro (red and blue symbols).
FIG. 11. The cell lines were grown as in FIG. 8, and dead cells were determined after 80 h by PI signal under fluorescent microscope. BF, bright field. PI, fluorescent PI channel.
as §1, with “cells. Data were obtained from duplicated samples with quadruplicate measurements.” for “cells.”

Test [3] relates to non-malignant Caco-2 cells. Nature of the test: Cell counting, Caco-2. It is filed as cell-based, human. Particulars: 54 μM, 5 d. Here is the method: as §2
Cell number was determined by cell counting using improved Neubauer hemacytometer. Cell viability was calculated as the number of viable cells divided by the total number of cells using Trypan Blue Stain (Invitrogen) to distinguish non-viable cells. Data were obtained from duplicated samples with quadruplicate measurements. MTS based cell viability assay was performed using CellTiter 96 Aqueous Cell Proliferation Assay (Promega) according to the manufacturer's instruction. Either 1 μl of DMSO alone or variable concentrations of BKAc-Puro or Puro in DMSO were added to the cell lines seeded at 5×10^4 cells per well in 96-well tissue culture plates in 100 μl of the growth medium, followed by 3-5 d incubation at 37° C. with 5% CO2 atmosphere. […] After additional 2-3 h incubation, the absorbance of the formazan at 490 nm was measured by the microplate reader. […] Determination of non-viable cells using PI staining was performed by adding 1 μg/ml of PI solution (Sigma) to the cell culture, prior to the examination under fluorescence microscopy (Axiovert 3, Carl Zeiss) through a×32 objective equipped with a digital imaging processor (Infinity 3, Lumenera).

The test system of test [4] is Puro-incorporated proteins in HCT116, HT29, CCD841-CoN and Caco-2 cells. Nature of the test: Immunoblotting of Puro-incorporated proteins in cell lysates. It is filed as cell-based, human. The note with it: 16.9 μM, 20 h. Here is the method:
FIG. 27. Levels of Puro-incorporated proteins in the cells were monitored by immunoblotting. Indicated cell lines were treated either with vehicle control DMSO or Boc-KAc-Puro (16.9 μM) in the presence or absence of TSA (0.5 μM) for 20 h, followed by preparation of cell lysates. The lower panel (anti-α-Tubulin) serves as a loading control.
FIG. 28. Levels of Puro-incorporated proteins in the cells were monitored by immunoblotting. Indicated cell lines were treated either with vehicle control DMSO or Puro (2.1 μM) in the presence or absence of TSA (0.5 μM) for 16 h, followed by preparation of cell lysates. […] The lower panel (anti-α-Tubulin) serves as a loading control.
Cultured cells or tissue samples were sonicated in RIPA lysis buffer (1% NP-40, 0.1% SDS, 50 mM Tris-HCl pH 7.4, 150 mM NaCl, 0.5% sodium deoxycholate, 1 mM EDTA) supplemented with PMSF and protease inhibitor cocktail (Roche) on ice followed by clarification. Protein lysates were separated on sodium dodecyl sulfate-polyacrylamide gels and transferred onto nitrocellulose membranes (Whatman). The primary antibodies used were anti-puromycin (3RH11, KeraFAST) and anti-α-tubulin (Sigma-Aldrich). Proteins of interest were detected with anti-mouse secondary antibody by chemiluminescence (ECL Kit, GE Healthcare Life Sciences).
(In general: Immunoblotting shows a protein as a band on a membrane.)

For another test, the system named is ARH-77 cells. Nature of the test: Live single cell imaging by fluorescence microscopy, cell surface Puro. It is filed as cell-based. Particulars: 20 μg/ml, 16 hr, anti-puro antibody (12D10) Alexa 647, fluorescence microscopy. Here is the method: (§3) Cell surface detection of Puro by anti-puro antibody (12D10) conjugated to Alexa 647 (EMD Millipore). ARH-77 cells were treated with Puro (0.25 μg/ml) or Boc-KAc-Puro (20 μg/ml) for 16 hr then harvested by centrifugation followed by two times wash using cold washing solution (0.1% BSA in PBS). Cells were resuspended in the same solution and incubated 30 min on ice with Alexa 647 conjugated mouse IgG2a anti-puromycin antibody (12D10). Cells were washed twice with the solution followed by fluorescence microscope analysis. The specificity of the antibody was confirmed by using isotype control antibody (mouse IgG2a conjugated with Alexa 647).

For another test, the system named is RPMI8226 cells. Description: Live single cell detection by FACS, cell surface Puro. The note with it: 20 μg/ml, 16 hr, anti-puro antibody (12D10) Alexa 647, FACS. The test is classed as cell-based. Here is the method:
as §3, with “RPMI8226” for “ARH-77”, “FACS analysis (BD FACSCalibur).” for “fluorescence microscope analysis.”
A general note: In flow cytometry, cells or beads pass a laser one at a time.

The structures appear in SMILES notation.

On to `COc1ccc(CC(NC(=O)C(CCCCNC(C)=O)NC(=O)OC(C)(C)C)C(=O)NC2C(O)[C@H](n3cnc4c(N(C)C)ncnc43)O[C@@H]2CO)cc1` (stereo partly drawn) [BKAc-Puro, N-[3′-(α-Amino-p-methoxyhydrocinnamamido)-3′-deoxy-N,N-dimethyldenosinyl)-N-α-(t-butoxycarbonyl]-N-ε-acetyl-L-lysineamide], for which, in the test with CCD841-CoN, the “Effect on normal colon cells” value is on record as “relatively little effect”. In addition, the “Effect on cell viability” value in test [1] (54 μM, 5 d) is on record as “also effective”. Moreover, the Cell death result in test [1] (dose-response) is “effectively caused cell death”. Besides, in test [2], the “Cell death (trypan blue exclusion, morphology, PI staining)” value is “massive cell death”. Also, the figures for the “Cell proliferation (cell number)” value in test [2] (5 d) and in test [3] were “impaired the proliferation” and “allowed them to proliferate to confluency”, respectively. In addition, the “Intensity of Puro incorporation, malignant versus normal and non-malignant cells” value in test [4] was “substantially greater in malignant cancer cells”. Moreover, the “Intensity of Puro incorporation in the presence of TSA” value in test [4] (TSA 0.5 μM) is recorded as “compromised intensity”. Further, the “Puro presentation on cell surface proteins” value in the test with ARH-77 cells and with RPMI8226 cells was “confirmed” throughout.

The values are drawn from patent US20160184459A1, “CANCER CELL SPECIFIC IMAGING PROBES AND METHODS OF USE” (THE RESEARCH FOUNDATION FOR THE STATE UNIVERSITY OF NEW YORK, priority 2013, published 2016).
